Test results: US20060275238A1, “Topical cosmetic formulations for regulating and improving the moisture content of the skin” (Goldschmidt GmbH, priority 2005, published 2006)

Tests used:
[1] = test system: skin; assay: Corneometry, skin moisture before and after single application of test formulation; type: in vivo, subjects; conditions: single application in O/W cream, contact time two hours; concentration as in 10% active ingredient combination 1
Method: Corneometry is a noninvasive method which permits conclusions relating to the skin moisture on the basis of changes in the physical parameters within the stratum corneum. In practice, 12 to 15 subjects are recruited whose skin moisture is measured before and after single application of the test formulations using a HM99 corneometer (Courage & Khazaka, Cologne, Germany) according to the manufacturer's instructions.
After climatization of the subjects over 15 minutes under defined conditions of 22° C. and 55% relative humidity, the skin hydration is determined corneometrically and afterwards 50 mg of the test formulation are applied to a skin area each with a diameter of 2.5 cm, and after […] any residues of the formulation are removed.
After a contact time of two hours, the skin hydration is measured again following climatization of 15 minutes (22° C., 55% rel. humidity). An increase of the relative corneometer units CU correlates directly with improved skin hydration.
The concentrations of the individual substances were chosen so that they correspond to the concentration in 10% active ingredient combination 1.

[2] = In vitro sorption-desorption properties of moisturizers (weight increase vs relative atmospheric humidity); type: physicochemical; conditions: 24 h each; for ability to absorb water as the atmospheric humidity increases: 20% to 80% r.h. in 10% stages; for ability to store/hold the absorbed water as the atmospheric humidity decreases (hysteresis behavior): 80% r.h. reduced in 10% stages
Method: In order to determine the in vitro sorption-desorption properties of moisturizers, these were firstly dried overnight at 80° C. and 0% relative humidity (r.h.) and then cooled to room temperature in a desiccator. 4-5 g of the moisturizer substance were then placed into a Petri dish and stored for 24 h at 20% rh. The weight increase was recorded and the atmospheric humidity was then increased by 10%. After 24 h, the weight of the moisturizer was monitored again. This was repeated in stages to an atmospheric humidity of 80%. The atmospheric humidity was then reduced again every 24 h in 10% stages and the weight decrease was recorded.

| ability to absorb water as the atmospheric humidity increases [2] | ability to store/hold the absorbed water as the atmospheric humidity decreases (hysteresis behavior) [2] | SMILES | ΔCU, increase in the relative corneometer units compared with the blank formulation [1] [CU] |
| --- | --- | --- | --- |
| very good ability to absorb water | able to hold onto the absorbed water | NC(N)=O [urea, Urea] | 3.6 |
|  |  | CC(O)C(=O)[O-].[K+] (stereo not drawn) [potassium lactate, Potassium lactate] | 1.6 |
| very good ability to absorb water | able to hold onto the absorbed water | C[N+](C)(C)CC(=O)[O-] [trimethylglycine, Trimethylglycine] | 3.2 |

| SMILES | ability to absorb water as the atmospheric humidity increases [2] | ability to store/hold the absorbed water as the atmospheric humidity decreases (hysteresis behavior) [2] | ΔCU, increase in the relative corneometer units compared with the blank formulation [1] [CU] |
| --- | --- | --- | --- |
| OCC(O)CO [glycerol, 1,2,3-propanetriol, reference compound] | absorb the largest possible amounts of water | not able to do |  |
